Experimental data from patent publication US20250154201A1, “PEPTIDE BINDING TO MESOTHELIN, AND USE THEREOF” (KYUNGPOOK NATIONAL UNIVERSITY INDUSTRY-ACADEMIC COOPERATION …, priority 2022, published 2025).
Values after ≈ are worked out from the molar mass of the structure shown. Positions of bridges follow the written chain, without caps; N, C: chain ends. Residues, ends and D or L forms follow the SMILES beside them. No end group written: not given here.

Experiments:
in vitro = assay: in vitro
Description: (§1) Pancreatic cancer cell line AsPC-1 cells (5×10^3 cells/well in 96-well plates) were cultured in 1% serum medium with various concentrations of MSLN-pep peptide that specifically binds to mesothelin, NSSSVDK control peptide (Ctrl-pep), R7-KLA peptide that induces apoptosis, Abraxane, gemcitabine, and PBS at 37° C. for 24 and 48 hours. Afterwards, CCK-8 Kit (Dojindo, Kumamoto, Japan) reagent was treated, and a reaction was carried out at 37° C. for 2 hours to evaluate cytotoxicity.
(§2) To determine whether there is cytotoxicity when MSLN-pep binds specifically to mesothelin, the peptide was treated to the pancreatic cancer cell line AsPC-1 at concentrations of 0, 25, 50, 100, and 200 μM, and cell viability was checked for 24 and 48hours.

[1] = test system: pancreatic cancer cell line AsPC-1; assay: in vitro
Description: as §1, §2

[2] = test system: pancreatic cancer cell lines PANC-1 and AsPC-1; assay: internalization of FITC-labeled peptides (confocal microscopy); format: cell-based, human; conditions: 25 μM and 50 μM MSLN-pep, 50 uM NSSSVDK; 1 and 2 hours
Description: To observe the intracellular distribution of the internalized FITC-labeled peptide MSLN-pep, pancreatic cancer cell lines AsPC-1 and PANC-1 cells (2.5×10^5 cell counts) were dispensed on a 4-well chamber slide. After complete adhesion, the cell culture medium was replaced with a fresh medium containing FITC-labeled peptides (25 μM, 50 μM), […], and the cells were washed with PBS 3 times for 3˜5 minutes, followed by fixation (4% paraformaldehyde; PFA) for 5 minutes. Thereafter, washing with PBS was performed. After staining the nucleus with DAPI and mounting on a glass slide with a fading reagent, internalization of FITC-labeled MSLN-pep was observed under confocal microscopy.

[3] = test system: PANC-1 and AsPC-1 cell lines; assay: analysis of migration (24-transwell); format: cell-based, human; conditions: 200 μM + 10% FBS; 24 hours
Description: PANC-1 and AsPC-1 cell lines were cultured using DMEM and RPMI-1640 media with 10% FBS added respectively in the upper chamber of 24-transwell at a concentration of 2×10^4 cells per well. After 24 hours, all the media in the upper chamber of 24-transwells were removed and replaced with DMEM and RPMI-1640 media without addition of 10% FBS to inhibit migratability of cell lines, so as to be in a starvation state. After 24 hours, the experimental group was added with 10% FBS in the lower chamber, and the control was added with 0% FBS in the lower chamber to observe migratability. 3% ACN, 200 μM control peptide (Ctrl-pep), MSLN-pep 25. For 50, 100, and 200 μM groups, the media in the upper chamber of 24-Transwell were removed, each drug was treated by concentration, and 10% FBS was treated in the lower chamber. Each group was cultured at 37° C. for 24 hours, and then the cells were photographed (original magnification, ×100) by concentration of each peptide. Cells were stained with crystal violet (0.1%), and the ImageJ, a computer program, was used for quantitative evaluation.
(§3) After pancreatic cancer cell lines PANC-1 and AsPC-1 were cultured in 24-transwells, all cells were starved for 24 hours to inhibit cell growth, and then treatment was performed in divided groups of 10% FBS, 0% FBS, 3% ACN+10% FBS, 200 μM NSSSVDK+10% FBS, 25 μM MSLN-pep+10% FBS, 50 μM MSLN-pep+10% FBS, 100 μM MSLN-pep+10% FBS, and 200 μM MSLN-pep+10% FBS.

[4] = test system: PANC-1 and AsPC-1 cell lines; assay: analysis of invasion (Matrigel-coated 24-transwell); format: cell-based, human; conditions: 200 μM + 10% FBS; 24 hours
Description: PANC-1 and AsPC-1 cell lines were cultured using DMEM and RPMI-1640 media with 10% FBS added in 100 mm dish each at a concentration of 2×10^6 cells per well. After 24 hours, all media in 100 mm dishes were removed and replaced with DMEM and RPMI-1640 media without addition of 10% FBS to inhibit migratability of cell lines so as to be in a starvation state. After 24 hours, 300 μg/mL of Matrigel was coated on the upper chamber of 24-Transwell. Afterwards, PANC-1 and AsPC-1 cell lines were cultured in the upper chamber at a concentration of 2×10^4 cells in a 100 mm dish, 10% FBS was added to the lower chamber for the experimental group, and 0% FBS was added to the lower chamber for the control group to identify migratability. 3% ACN, 200 μM control peptide (Ctrl-pep), MSLN-pep 25. For 50, 100, and 200 μM groups, each cell line was cultured together in the upper chamber of the 24-Transwell, and 10% FBS was treated in the lower chamber. Each group was cultured at 37° C. for 24 hours, and then the cells were photographed (original magnification, ×100) for each concentration of peptides. Cells were stained with crystal violet (0.1%), and Image J, a computer program, was used for quantitative evaluation.
as §3

AsPC-1 tumor = assay: tumor homing of peptides in mice; format: in vivo, nude mice; conditions: TAMRA-labeled, intravenous, 6 hours circulation; liver, lungs, kidneys
Description: Pancreatic cancer cell line AsPC-1 cells (1×10^7 cells) were implanted under the skin of nude mice, left until the tumor size reaches about 100 mm^3, and then intravenously injected with 100 μl of 1 mM peptides labeled with a TAMRA fluorescence reagent, followed by circulation for 6 hours. Tumors and organs (liver, lung, and kidney) were separated and treated with paraformaldehyde for fixation and preparation of cryosections. The prepared cryosections were observed under a fluorescence microscope.
Pancreatic cancer cell line AsPC-1 cells (1×10^7 cells) were implanted under
the skin of nude mice, left until the tumor size reached about 100 mm^3, and then intravenously injected with MSLN-pep labeled with the TAMRA fluorescence reagent and control peptide (Ctrl-pep), followed by circulation for 6 hours. The tumor and control organs were separated, and cryosections were prepared, followed by observation under a fluorescence microscope.

mesothelin = mesothelin (Homo sapiens, UniProt Q13421); assay: immunofluorescence binding to HEK-293T cells transiently transfected with mesothelin-GFP plasmid; format: cell-based; set-up: GFP; host or cells: HEK293T; conditions: 10 μM and 25 μM MSLN-pep, 25 μM Ctrl-pep; transfected and untransfected HEK-293T
Description: HEK293T cells were transiently transfected using Lipofectamine 3000 (Invitrogen) in 6-well plates according to the manufacturer's protocol. Prior to transfection, 2×10^5 cells were cultured in 6-well plates for 24 hours. To transfect one well, 7.5 μl of Lipofectamine 3000 reagent was diluted in 250 μl of Opti-MEM (Invitrogen) reagent, followed by a reaction at room temperature for 5 minutes. 5 μg of mesothelin-expressing plasmid pCMV6-AC-GFP vector DNA was diluted in 250 μl of Opti-MEM (Invitrogen) reagent, followed by a reaction at room temperature for 5 minutes. The mixture of two solutions were then mixed and reacted at room temperature for 10 minutes (a total of 500 μl per well). The old medium of the cells was immediately removed, and a 500 μl of DNA-transfection reagent-mixture was added to the cells before transfer to the incubator. After 24 hours of culture, the medium was again replaced with a pre-warmed growth medium containing serum. Culture was performed for 48 hours, and the newly inserted protein was expressed in the cells.
Taken together, it was found via immunofluorescence analysis that MSLN-pep specifically binds to mesothelin.

[5] = molecular target: T1, human mesothelin (endogenous, on pancreatic cancer cell lines AsPC-1, PANC-1, BxPC-3, MiaPaCa-2) (human, UniProt Q13421 296-598); assay: cell-based or functional assay
[6] = molecular target: T1, human mesothelin (endogenous, on …); assay: confocal microscopy on PANC-1 and AsPC-1 cells, 1 and 2 hours

T1 sequence (Q13421 other isoform, or with tags, fused parts or gaps limits assumed): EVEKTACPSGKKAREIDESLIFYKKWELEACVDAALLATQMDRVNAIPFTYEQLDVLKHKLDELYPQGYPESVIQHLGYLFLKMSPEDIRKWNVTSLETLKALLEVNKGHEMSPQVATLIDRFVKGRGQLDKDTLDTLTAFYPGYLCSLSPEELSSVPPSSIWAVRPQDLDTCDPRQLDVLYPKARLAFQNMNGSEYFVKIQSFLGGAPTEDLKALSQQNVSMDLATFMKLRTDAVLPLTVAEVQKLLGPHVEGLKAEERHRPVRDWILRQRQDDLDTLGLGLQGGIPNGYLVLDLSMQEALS
Chain of mesothelin (Q13421 with tags, fused parts or gaps): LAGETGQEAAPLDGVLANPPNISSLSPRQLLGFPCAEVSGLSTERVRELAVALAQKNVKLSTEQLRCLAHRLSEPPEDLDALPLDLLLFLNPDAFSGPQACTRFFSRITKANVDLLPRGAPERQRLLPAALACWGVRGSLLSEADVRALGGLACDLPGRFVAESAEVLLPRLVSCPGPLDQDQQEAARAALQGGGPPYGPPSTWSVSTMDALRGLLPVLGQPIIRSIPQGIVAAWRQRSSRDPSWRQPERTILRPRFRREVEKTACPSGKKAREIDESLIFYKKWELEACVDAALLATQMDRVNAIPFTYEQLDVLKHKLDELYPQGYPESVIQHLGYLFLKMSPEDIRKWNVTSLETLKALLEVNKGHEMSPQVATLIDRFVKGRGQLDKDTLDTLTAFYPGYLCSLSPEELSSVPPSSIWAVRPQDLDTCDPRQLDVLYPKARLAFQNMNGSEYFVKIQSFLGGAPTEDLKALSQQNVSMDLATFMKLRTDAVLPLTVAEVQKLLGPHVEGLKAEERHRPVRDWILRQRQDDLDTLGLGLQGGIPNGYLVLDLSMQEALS

CC[C@H](C)[C@@H]1NC(=O)[C@H]([C@@H](C)O)NC(=O)[C@@H](N)CSSC[C@@H](C(=O)N[C@@H](CCCCN)C(=O)N[C@@H](CC(C)C)C(=O)N[C@@H](C)C(=O)N[C@@H](CCCCN)C(=O)N[C@@H](CC(C)C)C(=O)N[C@@H](C)C(=O)N[C@@H](CCCCN)C(=O)N[C@@H](CCCCN)C(=O)N[C@@H](CC(C)C)C(=O)N[C@@H](C)C(=O)N[C@@H](CCCCN)C(=O)N[C@@H](CC(C)C)C(=O)N[C@@H](C)C(=O)N[C@@H](CCCCN)C(=O)O)NC(=O)[C@H]([C@@H](C)O)NC(=O)[C@H](CC(C)C)NC(=O)[C@H](CO)NC(=O)[C@H](Cc2c[nH]c3ccccc23)NC(=O)[C@H](CC(C)C)NC1=O [MSLN-pep-KLA] (H-CTILWSLTCKLAKLAKKLAKLAK-OH; disulfide 1-9)
IC50 (in vitro): 33 µM | cell viability, comparison between groups ([1]; 0, 6.25, 12.5, 25, 50, 100, and 200 uM, 24 hours): second lowest

Nc1ccn([C@@H]2O[C@H](CO)[C@@H](O)C2(F)F)c(=O)n1 [gemcitabine, reference compound]
IC50 ([1]; Homo sapiens, ASPC1, 24 h, read-out: IC50 value (cytotoxicity)): 3.3 µg/mL (≈ 12.5 µM) | viability at 10 µg/mL ([1]; Homo sapiens, ASPC1, 24 h, read-out: cell viability): ≤ 40%

NSSSVDK [Ctrl-pep, reference compound]
binding and internalization into cells [2]: did not bind to PANC-1 and AsPC-1 | migratability compared to treatment of 10% FBS [3]: no difference in the migratability and invasiveness | invasiveness compared to treatment of 10% FBS [4]: no difference in the migratability and invasiveness | targeting to control organs (fluorescence microscopy of cryosections) (AsPC-1 tumor): barely observed | specific binding (immunofluorescence) (mesothelin): did not have specific binding

CTILWSLTCKLAKLAKKLAKLAK (disulfide 1-9) [MSLN-pep-KLA (fusion of CTILWSLTC and apoptotic peptide KLAKLAKKLAKLAK)]
cell viability of AsPC-1 after 24 hours (CCK-8), IC50 [5]: 33 µM

NSSSVDK (Control peptide) [NSSSVDK control peptide (Ctrl-pep)]
binding result [6]: no binding (tested: 50 µM)
